{"source": "paper PMC4004541", "about": "“PEG-Like Nanoprobes: Multimodal, Pharmacokinetically and Optically Tunable Nanomaterials” (PLoS ONE, 2014)", "key": {"HT-29 tumor": {"system": "HT-29 tumor", "experiment": "SPECT/CT and surface fluorescence imaging of the EPR effect of the HT-29 tumor", "format": "in vivo, nude mice", "settings": "48 h post-injection, mice bearing HT-29 tumors", "method": "A) SPECT/CT images of two mice bearing two HT-29 tumors as a function of time after injection. […] B) Surface fluorescence imaging of two additional mice bearing the same tumor.\nFemale nude mice (25–30 g; 6–8 weeks old; nu/nu) were anesthetized with 2% isoflurane/O2. HT-29 or mCherry-HT-29 cells were detached, pelleted and 200 µl of cell suspension containing 10^6 cells in Matrigel (BD Bioscience) was injected subcutaneously into right and left shoulders. Tumors were allowed to grow 5–7 days before experiments.\nThe imaging was performed by Triumph II multimodality imaging system (Gamma Medica Ideas, LLC) comprising XSPECT with four CZT (Cadmium Zink Telluride) detectors and X-O CT with CMOS detector. SPECT data of the ^111In-labeled compound was acquired for 60 min using 5-pinhole collimators and processed with 3D-OSEM algorithm using 4 subsets and 5 iterations. 3-dimensional CT data was processed with modified Feldkamp software. […] Animals were under isoflurane anesthesia (1.5%) with O2 flow (1.5 l/min) and kept warm during the imaging with a heated animal bed."}, "mCherry/HT29 cells": {"system": "mCherry/HT29 cells", "experiment": "Confocal microscopy of mCherry/HT29 tumor sections", "format": "in vivo, nude mice", "settings": "tumor collected 48 h post IV injection", "description": "With skin removed, an overlay of tumor mCherry (green) and PN(545)10.0 (purple) gave a white superimposition. To determine the cells responsible for the accumulation of PN(783)10.0 seen with surface fluorescence ( Figure 5C ), we employed confocal microscopy of mCherry/HT29 tumor sections ( Figure 5D ).\nThe mCherry-HT-29 tumor sample was collected at 48 h post IV injection with PN(497)10.0, and then cryosectioned with thickness of 5 µm. The tumor section was fixed with 4% PFA, mounted with 90% glycerol/10% PBS (at pH 8.5 for best fluorescein fluorescence), and stained with DAPI. Confocal imaging was performed on a Zeiss LSM510 laser scanning confocal microscope (Zeiss Axiophot, Carl Zeiss, Jena, Germany). A 405 nm diode Laser, 488 nm argon laser, and 561 nm diode laser were used for the excitation of DAPI, fluorescein, and mCherry, respectively. A primary dichroic HFT 405/488/561 was used in combination with an LP420 emission filter for DAPI, BP505-530 for fluorescein, and LP575 for mCherry. Images were analyzed with ImageJ64.\nConfocal imaging: The mCherry-HT-29 tumor sample was collected at 48 h post IV injection with PN(497)10.0, and then cryosectioned with thickness of 5 µm. The tumor section was fixed with 4% PFA, mounted with 90% glycerol/10% PBS (at pH 8.5 for best fluorescein fluorescence), and stained with DAPI. […] Images were analyzed with ImageJ64."}}, "data": [{"substance": "(DOTA)Lys(PEG 30 kDa)-Cys(IR-783) [PN(783)10.0, PEG-like Nanoprobe: 30 kDa PEG, IR-783 fluorochrome, DOTA peptide]", "values": [{"measurement": "Distribution by SPECT and surface fluorescence", "setting": "HT-29 tumor", "value": "seen only in the tumor"}]}, {"substance": "(DOTA)Lys(PEG 30 kDa)-Cys(Fl) [PN(497)10.0, PEG-like Nanoprobe: 30 kDa PEG, fluorescein, DOTA peptide]", "values": [{"measurement": "Cellular localisation in tumor sections", "setting": "mCherry/HT29 cells", "value": "seen in mCherry/HT29 cells"}]}]}
